Data published in ChEMBL document CHEMBL1139217, “Development of dihydropyridone indazole amides as selective Rho-kinase inhibitors” (J Med Chem, 2007).

Key:
[1] = Clearance in Sprague-Dawley rat; format: ADME, organism-based; conditions: in vivo
[2] = target: Rho-associated protein kinase 1 (Homo sapiens, UniProt Q13464); experiment: Inhibition of human recombinant ROCK1 expressed in Sf9 cells […]
[3] = target: Ribosomal protein S6 kinase beta-1 (Homo sapiens, UniProt P23443); experiment: Inhibition of p70S6K
Sequence of Ribosomal protein S6 kinase beta-1 (P23443 whole entry): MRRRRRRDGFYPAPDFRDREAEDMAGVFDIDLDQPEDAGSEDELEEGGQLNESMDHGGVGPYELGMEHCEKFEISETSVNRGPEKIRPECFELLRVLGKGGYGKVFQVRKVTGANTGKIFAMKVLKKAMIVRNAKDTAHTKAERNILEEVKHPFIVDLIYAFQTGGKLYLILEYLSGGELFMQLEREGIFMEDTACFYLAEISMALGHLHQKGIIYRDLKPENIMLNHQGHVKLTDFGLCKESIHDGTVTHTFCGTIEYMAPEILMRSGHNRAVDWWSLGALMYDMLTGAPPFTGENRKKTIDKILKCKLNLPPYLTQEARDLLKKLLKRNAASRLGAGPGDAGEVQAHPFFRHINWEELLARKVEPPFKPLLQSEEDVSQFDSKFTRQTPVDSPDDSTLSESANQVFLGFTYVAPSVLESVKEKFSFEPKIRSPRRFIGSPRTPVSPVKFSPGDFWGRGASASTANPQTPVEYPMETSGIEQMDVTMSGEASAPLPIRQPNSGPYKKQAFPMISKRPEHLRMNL

[4] = target: Ribosomal protein S6 kinase alpha-1 (Homo sapiens, UniProt Q15418); experiment: Inhibition of RSK1
Sequence of Ribosomal protein S6 kinase alpha-1 (Q15418 whole entry): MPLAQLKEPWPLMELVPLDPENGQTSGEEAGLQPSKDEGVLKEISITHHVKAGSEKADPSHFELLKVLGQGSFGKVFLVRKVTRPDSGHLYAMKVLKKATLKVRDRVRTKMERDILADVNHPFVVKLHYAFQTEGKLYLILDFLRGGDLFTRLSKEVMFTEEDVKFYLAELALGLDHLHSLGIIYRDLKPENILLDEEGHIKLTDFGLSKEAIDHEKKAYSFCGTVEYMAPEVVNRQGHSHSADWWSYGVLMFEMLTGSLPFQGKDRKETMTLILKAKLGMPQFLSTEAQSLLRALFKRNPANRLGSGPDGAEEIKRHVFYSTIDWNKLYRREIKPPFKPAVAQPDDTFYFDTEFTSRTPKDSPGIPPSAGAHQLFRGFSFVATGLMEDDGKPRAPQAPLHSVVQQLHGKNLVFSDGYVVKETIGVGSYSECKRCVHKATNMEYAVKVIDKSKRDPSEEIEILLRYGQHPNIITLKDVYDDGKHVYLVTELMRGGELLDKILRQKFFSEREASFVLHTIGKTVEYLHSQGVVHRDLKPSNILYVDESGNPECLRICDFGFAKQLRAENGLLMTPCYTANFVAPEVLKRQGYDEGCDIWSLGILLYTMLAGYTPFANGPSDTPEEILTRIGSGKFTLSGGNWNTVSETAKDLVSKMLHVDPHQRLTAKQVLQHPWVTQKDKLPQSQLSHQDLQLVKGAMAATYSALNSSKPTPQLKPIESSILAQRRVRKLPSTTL

[5] = tested on: Thoracic aorta; experiment: Dilatory activity against phenylephrine-induced contraction of Sprague-Dawley rat thoracic aorta; format: functional, tissue-based
[6] = Cmax in Sprague-Dawley rat at 1.3 mg/kg, iv; format: ADME, organism-based; set-up: dose 1.3 mg/kg, route intravenous; conditions: in vivo
[7] = Cmax in Sprague-Dawley rat at 1.6 mg/kg, iv; format: ADME, organism-based; set-up: dose 1.6 mg/kg, route intravenous; conditions: in vivo
[8] = Half life in Sprague-Dawley rat at 1.6 mg/kg; format: ADME, organism-based; set-up: dose 1.6 mg/kg; conditions: in vivo
[9] = Volume of distribution in Sprague-Dawley rat at 1.6 mg/kg; format: ADME, organism-based; set-up: dose 1.6 mg/kg; conditions: in vivo, read-out: Vdss
[10] = Clearance in Sprague-Dawley rat at 1.6 mg/kg; format: ADME, organism-based; set-up: dose 1.6 mg/kg; conditions: in vivo
[11] = Oral bioavailability in Sprague-Dawley rat at 1.6 mg/kg, po; format: ADME, organism-based; conditions: in vivo
[12] = Half life in Sprague-Dawley rat at 0.9 mg/kg; format: ADME, organism-based; set-up: dose 0.9 mg/kg; conditions: in vivo
[13] = Oral bioavailability in Sprague-Dawley rat at 0.9 mg/kg, po; format: ADME, organism-based; conditions: in vivo
[14] = Clearance in Sprague-Dawley rat at 0.9 mg/kg; format: ADME, organism-based; set-up: dose 0.9 mg/kg; conditions: in vivo
[15] = Cmax in Sprague-Dawley rat at 0.9 mg/kg, iv; format: ADME, organism-based; set-up: dose 0.9 mg/kg, route intravenous; conditions: in vivo
[16] = Volume of distribution in Sprague-Dawley rat at 0.9 mg/kg; format: ADME, organism-based; set-up: dose 0.9 mg/kg; conditions: in vivo, read-out: Vdss
[17] = Cmax in Sprague-Dawley rat at 1.8 mg/kg, iv; format: ADME, organism-based; set-up: dose 1.8 mg/kg, route intravenous; conditions: in vivo
[18] = Half life in Sprague-Dawley rat at 1.8 mg/kg; format: ADME, organism-based; set-up: dose 1.8 mg/kg; conditions: in vivo
[19] = Volume of distribution in Sprague-Dawley rat at 1.8 mg/kg; format: ADME, organism-based; set-up: dose 1.8 mg/kg; conditions: in vivo, read-out: Vdss
[20] = Plasma concentration in spontaneously hypertensive rat at 3 mg/kg after 2 hrs; format: ADME, organism-based; set-up: dose 3 mg/kg
[21] = Clearance in Sprague-Dawley rat at 1.8 mg/kg; format: ADME, organism-based; set-up: dose 1.8 mg/kg; conditions: in vivo
[22] = Plasma concentration in spontaneously hypertensive rat at 3 mg/kg after 4 hrs; format: ADME, organism-based; set-up: dose 3 mg/kg
[23] = Plasma concentration in spontaneously hypertensive rat at 3 mg/kg after 0.5 hrs; format: ADME, organism-based; set-up: dose 3 mg/kg
[24] = Plasma concentration in spontaneously hypertensive rat at 3 mg/kg after 8 hrs; format: ADME, organism-based; set-up: dose 3 mg/kg
[25] = tested on: Rattus norvegicus; experiment: Decrease in mean arterial pressure in spontaneously hypertensive rat at 3 mg/kg, po; format: functional, organism-based; set-up: dose 3 mg/kg; conditions: Artery
[26] = Plasma concentration in spontaneously hypertensive rat at 3 mg/kg after 24 hrs; format: ADME, organism-based; set-up: dose 3 mg/kg
[27] = Plasma concentration in spontaneously hypertensive rat at 3 mg/kg after 1 hr; format: ADME, organism-based; set-up: dose 3 mg/kg
[28] = Oral bioavailability in Sprague-Dawley rat at 1.8 mg/kg, po; format: ADME, organism-based; conditions: in vivo
[29] = Volume of distribution in Sprague-Dawley rat at 1.3 mg/kg; format: ADME, organism-based; set-up: dose 1.3 mg/kg; conditions: in vivo, read-out: Vdss
[30] = Oral bioavailability in Sprague-Dawley rat at 1.3 mg/kg, po; format: ADME, organism-based; conditions: in vivo
[31] = Clearance in Sprague-Dawley rat at 1.3 mg/kg; format: ADME, organism-based; set-up: dose 1.3 mg/kg; conditions: in vivo
[32] = Half life in Sprague-Dawley rat at 1.3 mg/kg; format: ADME, organism-based; set-up: dose 1.3 mg/kg; conditions: in vivo
[33] = Clearance in Sprague-Dawley rat at 1.7 mg/kg; format: ADME, organism-based; set-up: dose 1.7 mg/kg; conditions: in vivo
[34] = Volume of distribution in Sprague-Dawley rat at 1.7 mg/kg; format: ADME, organism-based; set-up: dose 1.7 mg/kg; conditions: in vivo, read-out: Vdss
[35] = Cmax in Sprague-Dawley rat at 1.7 mg/kg, iv; format: ADME, organism-based; set-up: dose 1.7 mg/kg, route intravenous; conditions: in vivo
[36] = Half life in Sprague-Dawley rat at 1.7 mg/kg; format: ADME, organism-based; set-up: dose 1.7 mg/kg; conditions: in vivo
[37] = Oral bioavailability in Sprague-Dawley rat at 1.7 mg/kg, po; format: ADME, organism-based; conditions: in vivo

Sequence of Rho-associated protein kinase 1 (Q13464 whole entry): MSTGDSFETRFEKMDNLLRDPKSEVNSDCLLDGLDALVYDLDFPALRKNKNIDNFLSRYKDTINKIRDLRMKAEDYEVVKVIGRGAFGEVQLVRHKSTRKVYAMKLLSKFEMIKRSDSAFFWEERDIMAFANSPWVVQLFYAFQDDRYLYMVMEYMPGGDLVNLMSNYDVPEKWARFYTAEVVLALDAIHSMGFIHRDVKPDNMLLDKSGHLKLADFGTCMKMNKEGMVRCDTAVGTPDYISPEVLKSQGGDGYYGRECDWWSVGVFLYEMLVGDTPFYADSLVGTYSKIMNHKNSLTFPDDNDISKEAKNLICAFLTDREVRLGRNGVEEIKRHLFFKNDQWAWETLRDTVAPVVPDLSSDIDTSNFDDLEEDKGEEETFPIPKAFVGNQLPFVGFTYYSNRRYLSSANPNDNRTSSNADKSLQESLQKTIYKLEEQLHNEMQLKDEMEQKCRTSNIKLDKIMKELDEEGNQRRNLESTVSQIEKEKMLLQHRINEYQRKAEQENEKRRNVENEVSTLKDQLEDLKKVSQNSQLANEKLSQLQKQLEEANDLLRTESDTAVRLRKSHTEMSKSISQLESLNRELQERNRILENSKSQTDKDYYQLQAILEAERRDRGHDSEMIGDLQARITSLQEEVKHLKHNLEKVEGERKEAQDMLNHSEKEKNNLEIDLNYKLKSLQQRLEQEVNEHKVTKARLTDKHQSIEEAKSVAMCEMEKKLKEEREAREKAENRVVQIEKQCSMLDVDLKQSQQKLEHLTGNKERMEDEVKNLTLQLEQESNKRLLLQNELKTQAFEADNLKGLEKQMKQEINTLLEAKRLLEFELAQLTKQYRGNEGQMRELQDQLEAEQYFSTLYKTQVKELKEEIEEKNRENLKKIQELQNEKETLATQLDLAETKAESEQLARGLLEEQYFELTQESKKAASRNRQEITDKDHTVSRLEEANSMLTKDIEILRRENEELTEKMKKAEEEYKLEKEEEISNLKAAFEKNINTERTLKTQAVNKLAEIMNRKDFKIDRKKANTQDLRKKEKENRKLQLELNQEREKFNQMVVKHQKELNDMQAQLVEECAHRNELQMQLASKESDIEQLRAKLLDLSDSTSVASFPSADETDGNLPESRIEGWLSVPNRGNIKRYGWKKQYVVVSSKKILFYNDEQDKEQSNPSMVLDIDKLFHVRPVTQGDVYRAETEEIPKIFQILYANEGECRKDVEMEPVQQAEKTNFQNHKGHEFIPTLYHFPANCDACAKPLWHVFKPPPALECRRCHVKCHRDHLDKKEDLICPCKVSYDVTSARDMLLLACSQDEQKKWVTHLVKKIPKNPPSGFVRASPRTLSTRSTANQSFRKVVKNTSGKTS

IC50 [2] [nM] | IC50 [3] [nM] | IC50 [4] [nM] | half-life [12] [h] | bioavailability [13] [%] | clearance [14] [mL/min/kg] | Cmax [15] [ng/mL] | Vd [16] [L/kg] | SMILES | IC50 [5] [nM] | also measured
2500 | > 10000 | > 10000 | – | – | – | – | – | CC1=C(C(=O)Nc2ccc3[nH]ncc3c2F)C(c2ccc(C(F)(F)F)cc2)CC(=O)N1 (stereo unspecified) | – | –
51 | 1100 | 1410 | – | – | – | – | – | CC1=C(C(=O)Nc2ccc3[nH]ncc3c2)C(c2ccc(F)cc2)CC(=O)N1 (stereo unspecified) | 200 | Cmax [7]: 668 ng/mL; half-life [8]: 1 h; Vd [9]: 2.1 L/kg; clearance [10]: 47 mL/min/kg; bioavailability [11]: 14%
8 | 560 | 620 | 0.8 | 1 | 57 | 334 | 2.4 | CC1=C(C(=O)Nc2ccc3[nH]ncc3c2)C(c2ccc(Cl)c(Cl)c2)CC(=O)N1 (stereo unspecified) [GSK-299115A] | – | –
8 | 590 | 90 | 1.2 | 29 | 81 | 424 | 3.9 | CC1=C(C(=O)Nc2cc(Cl)c3[nH]ncc3c2)C(c2ccc(C(F)(F)F)cc2)CC(=O)N1 (stereo unspecified) [GSK-466317A] | – | –
14 | 1940 | 780 | – | – | – | – | – | CC1=C(C(=O)Nc2cc3cn[nH]c3cc2F)C(c2ccc(C(F)(F)F)cc2)CC(=O)N1 (stereo unspecified) | 190 | Cmax [17]: 1560 ng/mL; half-life [18]: 1 h; Vd [19]: 1.4 L/kg; concentration at 2 h [20]: 190 ng/mL; clearance [21]: 25 mL/min/kg; concentration at 4 h [22]: 110 ng/mL; concentration at 0.5 h [23]: 193 ng/mL; concentration at 8 h [24]: 74 ng/mL; Activity [25]: Dose-dependent effect; concentration at 24 h [26]: 2 ng/mL; concentration at 1 h [27]: 192 ng/mL; bioavailability [28]: 61%
9 | 4790 | 1950 | – | – | – | – | – | CC1=C(C(=O)Nc2ccc3[nH]nc(C)c3c2)C(c2ccc(C(F)(F)F)cc2)CC(=O)N1 (stereo unspecified) [GSK-466314A] | 130 | Vd [29]: 2.8 L/kg; bioavailability [30]: 18%; clearance [31]: 24 mL/min/kg; Cmax [6]: 672 ng/mL; half-life [32]: 2 h

SMILES | IC50 [2] [nM] | IC50 [3] [nM] | IC50 [4] [nM] | half-life [12] [h] | bioavailability [13] [%] | clearance [14] [mL/min/kg] | Cmax [15] [ng/mL] | Vd [16] [L/kg] | IC50 [5] [nM] | also measured
CC1=C(C(=O)Nc2ccc3[nH]ncc3c2)C(c2ccc(F)cc2)NC(=O)N1 (stereo unspecified) [GSK-180736A] | 14 | 2850 | 3100 | – | – | – | – | – | 760 | clearance [1]: 50 mL/min/kg; Cmax [6]: 567 ng/mL
CC1=C(C(=O)Nc2ccc3[nH]ncc3c2)C(c2ccc(C(F)(F)F)cc2)CC(=O)N1 (stereo unspecified) | 5 | – | 740 | 0.7 | 22 | 51 | 315 | 2.3 | 39 | –
CC1=C(C(=O)Nc2ccc3[nH]ncc3c2)C(c2ccc3ccccc3c2)CC(=O)N1 (stereo unspecified) [GSK-270822A] | 9 | 1550 | 1100 | – | – | – | – | – | 76 | clearance [33]: 45 mL/min/kg; Vd [34]: 1.8 L/kg; Cmax [35]: 700 ng/mL; half-life [36]: 0.9 h; bioavailability [37]: 13%
